According to ChEMBL document CHEMBL1124723, “Selective inhibition of gamma-aminobutyric acid aminotransferase by (3R,4R),(3S,4S)- and (3R,4S),(3S,4R)-4-amino-5-fluoro-3-phenylpentanoic acids” (J Med Chem, 1990):

Legend:
[1] = target: 4-aminobutyrate aminotransferase, mitochondrial (Sus scrofa, UniProt P80147); experiment: Binding affinity against Gamma-amino-N-butyrate transaminase in pig brain; format: tissue-based
[2] = Binding affinity against L-glutamate decarboxylase in pig brain; format: tissue-based, Sus scrofa

Sequence of 4-aminobutyrate aminotransferase, mitochondrial (P80147 whole entry): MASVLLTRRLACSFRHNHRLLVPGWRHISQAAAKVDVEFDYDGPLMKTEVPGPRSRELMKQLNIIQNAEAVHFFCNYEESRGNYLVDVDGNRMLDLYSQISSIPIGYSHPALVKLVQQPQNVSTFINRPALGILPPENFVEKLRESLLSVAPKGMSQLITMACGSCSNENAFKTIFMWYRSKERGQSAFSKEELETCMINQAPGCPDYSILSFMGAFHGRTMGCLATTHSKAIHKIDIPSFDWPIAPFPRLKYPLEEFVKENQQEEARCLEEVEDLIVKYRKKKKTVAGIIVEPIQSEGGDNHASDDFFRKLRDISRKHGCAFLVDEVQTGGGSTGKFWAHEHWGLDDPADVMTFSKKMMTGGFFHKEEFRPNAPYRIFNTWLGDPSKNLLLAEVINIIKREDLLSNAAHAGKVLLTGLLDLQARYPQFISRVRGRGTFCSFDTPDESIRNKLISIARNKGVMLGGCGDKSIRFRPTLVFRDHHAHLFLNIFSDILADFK

| Structure (SMILES) | Ki [1] [mM] | Ki [2] [mM] |
| --- | --- | --- |
| N[C@@H](CF)[C@@H](CC(=O)O)c1ccccc1 | 8 |  |
| N[C@H](CF)[C@@H](CC(=O)O)c1ccccc1 | 1 |  |
| NC(CF)CCC(=O)O (stereo not drawn) |  | 0.071 |
